Like-named read-outs stand apart in the source and are kept apart here. Values belong to the compound of their own block, whether it stands above or below them.
Columns and labels:
PI3Kα = biological target: T1, PI3Kα (Homo sapiens, UniProt P42336); experiment: PI3K alpha Leadseeker SPA Assay; type: biochemical; settings: in at least one experimental run; read-out: IC50 against PI3Kα
T1 construct: His
Protocol: PI3K alpha Leadseeker SPA Assay
Compounds of the present invention were tested according to the following assays and found as inhibitors of PI3 kinases, particularly PI3Kα. The exemplified compounds were tested and found active against PI3Kα. The IC50's ranged from about 1 nM to 10 μM.
SPA imaging beads are microspheres containing scintillant which emit light in the red region of the visible spectrum. As a result, these beads are ideally suited to use with a CCD imager such as the Viewlux. The Leadseeker beads used in this system are polystyrene beads that have been coupled with polyethyleneimine. When added to the assay mixture, the beads absorb both the substrate (PIP2) and product (PIP3). Adsorbed P^33-PIP3 will cause an increase in signal, measured as ADUs (analog to digital units). This protocol details the use of the PEI-PS Leadseeker beads for assays using His-p110/p85 PI3K alpha.
Solid compounds are typically plated with 0.1 μl of 100% DMSO in all wells (except column 6 and 18) of a 384-well, flat bottom, low volume plate (Greiner 784075). The compounds are serially diluted (3-fold in 100% DMSO) across the plate from column 1 to column 12 and column 13 to column 24 and leave column 6 and 18 containing only DMSO to yield 11 concentrations for each test compound.
The assay buffer contains MOPS (pH 6.5), CHAPS, and DTT. PI3K alpha and PIP2 (L-alpha-D-myo-Phosphatidylinositol 4,5-bisphosphate [P1(4,5)P2]3-O-phospho linked, D(+)-sn-1,2-di-O-octanoylglyceryl, CellSignals #901) are mixed and incubated in the plate with compound for 30 min prior to starting the reaction with the addition of P^33-ATP and MgCl2 (reagents added using Zoom). Enzyme-free wells (column 18) are typically done to determine the low control. PEI-PS Leadseeker beads in PBS/EDTA/CHAPS are added (by Multidrop) to quench the reaction, and the plates are allowed to incubate for at least one hour (typically overnight) before centrifugation. The signal is determined using a Viewlux detector and is then imported into curve fitting software (Activity Base) for construction of concentration response curves. The percent inhibition of activity was calculated relative to high controls (C1, 0.1 μl DMSO in column 6, rows A-P)) and low controls (C2, 5 μl of 40 uM PIP2 in buffer in column 18, rows A-P) using, 100*(1−(U1−C2)/(C1-C2)). The concentration of test compound yielding 50% inhibition was determined using the equation, y=((Vmax*x)/(K+x))+Y2, where “K” was equal to the IC50. The IC50 values were converted to pIC50 values, i.e., −log IC50 in Molar concentration.

Class I PI3-kinases = settings: cited from earlier work
neutrophils [1] = settings: cited from earlier work
CK2 protein kinase = settings: read-out: inhibition of CK2 protein kinase; cited from earlier work
neutrophils [2] = settings: treatment of neutrophils; Thelen et al. 1994; cited from earlier work

T1 sequence (P42336 whole entry): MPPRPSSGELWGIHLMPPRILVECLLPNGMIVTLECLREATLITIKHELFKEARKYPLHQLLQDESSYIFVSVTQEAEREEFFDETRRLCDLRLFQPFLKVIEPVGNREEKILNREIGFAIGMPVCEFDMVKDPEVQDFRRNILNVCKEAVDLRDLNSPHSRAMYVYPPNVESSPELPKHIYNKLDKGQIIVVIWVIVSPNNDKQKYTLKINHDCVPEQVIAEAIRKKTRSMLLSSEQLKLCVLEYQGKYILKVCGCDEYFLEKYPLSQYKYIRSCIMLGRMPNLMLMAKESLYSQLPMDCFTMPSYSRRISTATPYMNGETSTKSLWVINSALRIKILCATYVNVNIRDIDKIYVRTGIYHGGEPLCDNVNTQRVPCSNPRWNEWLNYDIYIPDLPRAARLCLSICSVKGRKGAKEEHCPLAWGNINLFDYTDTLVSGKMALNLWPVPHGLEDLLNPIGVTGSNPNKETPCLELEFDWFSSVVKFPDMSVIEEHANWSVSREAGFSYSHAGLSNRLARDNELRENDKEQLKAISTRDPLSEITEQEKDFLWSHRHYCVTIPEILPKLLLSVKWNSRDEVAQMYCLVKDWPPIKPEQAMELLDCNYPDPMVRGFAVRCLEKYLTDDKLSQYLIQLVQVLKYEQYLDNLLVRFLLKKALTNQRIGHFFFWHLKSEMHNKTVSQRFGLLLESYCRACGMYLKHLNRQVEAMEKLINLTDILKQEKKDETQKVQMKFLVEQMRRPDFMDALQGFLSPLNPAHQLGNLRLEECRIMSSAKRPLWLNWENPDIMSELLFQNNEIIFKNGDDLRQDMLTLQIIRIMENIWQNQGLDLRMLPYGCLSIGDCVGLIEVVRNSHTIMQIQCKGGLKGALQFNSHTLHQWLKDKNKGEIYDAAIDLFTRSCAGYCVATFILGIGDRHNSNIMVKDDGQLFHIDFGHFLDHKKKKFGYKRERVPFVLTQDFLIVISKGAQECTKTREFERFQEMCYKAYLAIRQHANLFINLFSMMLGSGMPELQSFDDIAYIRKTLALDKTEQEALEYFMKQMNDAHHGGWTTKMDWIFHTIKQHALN
T1 sequence (P27986 whole entry partner): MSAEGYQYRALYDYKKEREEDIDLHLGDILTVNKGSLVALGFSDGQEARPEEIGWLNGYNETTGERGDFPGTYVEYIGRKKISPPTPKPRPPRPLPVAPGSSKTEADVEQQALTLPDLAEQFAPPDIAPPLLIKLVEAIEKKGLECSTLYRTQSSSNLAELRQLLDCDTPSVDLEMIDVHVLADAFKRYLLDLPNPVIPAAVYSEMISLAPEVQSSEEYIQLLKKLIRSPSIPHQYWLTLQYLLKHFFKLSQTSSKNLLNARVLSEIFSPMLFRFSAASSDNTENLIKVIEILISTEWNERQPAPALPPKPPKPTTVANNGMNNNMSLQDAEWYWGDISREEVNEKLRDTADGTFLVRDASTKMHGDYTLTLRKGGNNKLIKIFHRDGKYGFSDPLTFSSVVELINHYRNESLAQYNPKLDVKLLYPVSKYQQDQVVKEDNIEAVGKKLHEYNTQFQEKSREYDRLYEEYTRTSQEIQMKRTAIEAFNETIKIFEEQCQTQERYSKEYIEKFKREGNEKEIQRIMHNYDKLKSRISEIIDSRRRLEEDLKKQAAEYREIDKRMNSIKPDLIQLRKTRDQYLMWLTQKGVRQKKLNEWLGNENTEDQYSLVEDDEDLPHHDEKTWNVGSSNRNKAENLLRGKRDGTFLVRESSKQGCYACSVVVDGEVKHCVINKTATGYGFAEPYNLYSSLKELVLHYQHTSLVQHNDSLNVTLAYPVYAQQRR

IC50 (PI3Kα): 40 nM
Structure (SMILES): OCc1ccc(-c2ccc3nccc(-c4ccncc4)c3n2)o1 [Example 1, {5-[8-(4-pyridinyl)-1,5-naphthyridin-2-yl]-2-furanyl}methanol]

Structure (SMILES): O=c1cc(N2CCOCC2)oc2c(-c3ccccc3)cccc12 [LY294002]
IC50 (Class I PI3-kinases; Fruman et al. 1998, read-out: IC50 against each of these PI3-kinases): 15000 to 20000 nM
neutrophil migration (neutrophils [1]): block
superoxide release (neutrophils [1]): block
IC50 (CK2 protein kinase): 5000 to 10000 nM

IC50 (PI3Kα): 27 nM
Structure (SMILES): NS(=O)(=O)c1cncc(-c2ccc3nccc(-c4cccc(OC(F)(F)F)c4)c3n2)c1 [Example 9, 5-(8-{3-[(trifluoromethyl)oxy]phenyl}-1,5-naphthyridin-2-yl)-3-pyridinesulfonamide]

IC50 (PI3Kα): 50 nM
Structure (SMILES): CN1CCN(c2ccnc3ccc(-c4cncc(S(=O)(=O)Nc5ccc(F)cc5F)c4)nc23)CC1 [Example 32, N-(2,4-difluorophenyl)-5-[8-(4-methyl-1-piperazinyl)-1,5-naphthyridin-2-yl]-3-pyridinesulfonamide]

IC50 (PI3Kα): 31 nM
Structure (SMILES): c1ccc(-c2n[nH]cc2-c2ccc3nccc(-c4ccncc4)c3n2)cc1 [Example 5, 2-(3-phenyl-1H-pyrazol-4-yl)-8-(4-pyridinyl)-1,5-naphthyridine]

IC50 (PI3Kα): 6 nM
Structure (SMILES): CS(=O)(=O)Nc1ccc(-c2ccnc3ccc(-c4cncc(S(N)(=O)=O)c4)nc23)cc1 [Example 11, 5-(8-{4-[(methylsulfonyl)amino]phenyl}-1,5-naphthyridin-2-yl)-3-pyridinesulfonamide]

IC50 (PI3Kα): 3 nM
Structure (SMILES): CN(C)S(=O)(=O)c1cc(-c2ccc3nccc(-c4ccncc4)c3n2)cnc1N [Example 2, 2-amino-N,N-dimethyl-5-[8-(4-pyridinyl)-1,5-naphthyridin-2-yl]-3-pyridinesulfonamide]

Structure (SMILES): COC[C@H]1OC(=O)c2coc3c2[C@@]1(C)C1=C(C3=O)[C@@H]2CCC(=O)[C@@]2(C)C[C@H]1OC(C)=O [wortmannin]
IC50 (Class I PI3-kinases; wortmannin, read-out: IC50 against each of the various Class I PI3-kinases): 1 to 10 nM
neutrophil migration (neutrophils [1]): block
superoxide release (neutrophils [1]): block
fMLP-induced respiratory burst response (neutrophils [2]): prevents the fMLP-induced respiratory burst response
